Legend:
AtPhyB = target: T1, AtPhyB (Arabidopsis thaliana, UniProt P14713); assay: co-expression with SyHO1 and ΔN_PpPcyA in E. coli, UV-vis absorption, Zn fluorescence, acid denaturation; assay type: binding; settings: covalent; pH 7.5
T1 construct: gene PHYB; His-tagged, E. coli C41, band about 70 kDa, so a truncated photosensory region
T1 sequence (P14713 1-624 limits assumed): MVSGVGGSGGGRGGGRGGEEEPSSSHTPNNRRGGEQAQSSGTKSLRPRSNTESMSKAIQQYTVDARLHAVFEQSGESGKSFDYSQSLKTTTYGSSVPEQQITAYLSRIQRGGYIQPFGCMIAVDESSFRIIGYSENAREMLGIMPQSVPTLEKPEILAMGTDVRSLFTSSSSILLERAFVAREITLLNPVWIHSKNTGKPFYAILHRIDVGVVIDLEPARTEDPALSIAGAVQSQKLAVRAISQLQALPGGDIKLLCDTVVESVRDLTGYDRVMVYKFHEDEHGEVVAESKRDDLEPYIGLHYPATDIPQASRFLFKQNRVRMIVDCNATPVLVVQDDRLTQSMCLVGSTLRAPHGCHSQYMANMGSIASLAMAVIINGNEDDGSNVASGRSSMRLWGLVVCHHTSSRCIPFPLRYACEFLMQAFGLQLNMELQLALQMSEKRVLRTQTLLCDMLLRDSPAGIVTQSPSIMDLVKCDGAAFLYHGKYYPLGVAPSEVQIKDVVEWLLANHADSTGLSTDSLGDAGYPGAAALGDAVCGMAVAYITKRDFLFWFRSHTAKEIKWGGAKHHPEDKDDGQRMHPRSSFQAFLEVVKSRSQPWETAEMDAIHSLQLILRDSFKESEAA

[1] = target: T2, PpDUC1-N (dualchrome 1 phytochrome region) (Pycnococcus provasolii, UniProt A0A830HT85); assay: expression in PΦB-producing E. coli, UV-vis absorption; assay type: binding; settings: covalent; difference spectrum; possibly data of Makita et al. 2021 shown again
T2 construct: gene PPROV_000692100; N-terminal phytochrome region (includes GAF and PHY domains) of the phytochrome-cryptochrome fusion; His-tagged, E. coli C41, about 75 kDa
T2 sequence (A0A830HT85 entry or part of it): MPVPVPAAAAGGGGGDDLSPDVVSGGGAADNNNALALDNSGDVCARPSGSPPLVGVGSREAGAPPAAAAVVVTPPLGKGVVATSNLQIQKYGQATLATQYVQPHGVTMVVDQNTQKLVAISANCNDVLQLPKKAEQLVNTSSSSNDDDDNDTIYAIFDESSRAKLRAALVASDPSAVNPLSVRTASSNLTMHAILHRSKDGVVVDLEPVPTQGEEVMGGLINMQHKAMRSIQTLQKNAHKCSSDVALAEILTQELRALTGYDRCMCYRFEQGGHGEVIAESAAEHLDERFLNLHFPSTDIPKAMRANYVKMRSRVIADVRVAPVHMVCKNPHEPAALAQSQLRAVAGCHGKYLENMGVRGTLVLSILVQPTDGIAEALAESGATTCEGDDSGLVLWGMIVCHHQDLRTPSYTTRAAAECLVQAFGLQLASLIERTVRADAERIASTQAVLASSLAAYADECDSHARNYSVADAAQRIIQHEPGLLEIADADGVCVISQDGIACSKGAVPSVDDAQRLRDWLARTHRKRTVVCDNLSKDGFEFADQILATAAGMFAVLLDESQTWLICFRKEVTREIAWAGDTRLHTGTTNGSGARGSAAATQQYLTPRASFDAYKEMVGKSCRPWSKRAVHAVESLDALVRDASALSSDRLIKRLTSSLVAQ

Row | SMILES | co-expression with SyHO1 and ΔN_PpPcyA in E. coli, UV-vis absorption, Zn fluores (AtPhyB) | expression in PΦB-producing E. coli, UV-vis absorption [1]
1 | CC=C1C(=Cc2[nH]c(C=C3N=C(C=C4NC(=O)C(CC)=C4C)C(C)=C3CCC(=O)O)c(CCC(=O)O)c2C)NC(=O)C1C (centres unmarked) [PCB] | difference spectrum of AtPhyB coexpressed with ΔN_PpPcyA was nearly identical to that of PCB-binding AtPhyB | –
2 | C=CC1=C(C)C(=CC2=NC(=Cc3[nH]c(C=C4NC(=O)C(C)C4=CC)c(C)c3CCC(=O)O)C(CCC(=O)O)=C2C)NC1=O (centres unmarked) [PΦB] | – | difference spectrum of PpDUC1-N purified from PCB-producing and PΦB-producing E. coli
